The record followed here is publication PMC7026418, “The kinase polypharmacology landscape of clinical PARP inhibitors” (Scientific Reports, 2020).

Read-outs that look alike come from different tables or passages of the source.

Common to all, as to experiment: biochemical
Common to all, as to set-up: DiscoveRx KINOMEscan active site-directed competition binding; percent of control kinase bound to immobilised ligand

Assay [1] deals with BMPR1A (Homo sapiens, UniProt P36894).
Assay [2] concerns the target T1, EPHB6 (Homo sapiens, UniProt O15197).
T1 sequence (O15197 1-1021): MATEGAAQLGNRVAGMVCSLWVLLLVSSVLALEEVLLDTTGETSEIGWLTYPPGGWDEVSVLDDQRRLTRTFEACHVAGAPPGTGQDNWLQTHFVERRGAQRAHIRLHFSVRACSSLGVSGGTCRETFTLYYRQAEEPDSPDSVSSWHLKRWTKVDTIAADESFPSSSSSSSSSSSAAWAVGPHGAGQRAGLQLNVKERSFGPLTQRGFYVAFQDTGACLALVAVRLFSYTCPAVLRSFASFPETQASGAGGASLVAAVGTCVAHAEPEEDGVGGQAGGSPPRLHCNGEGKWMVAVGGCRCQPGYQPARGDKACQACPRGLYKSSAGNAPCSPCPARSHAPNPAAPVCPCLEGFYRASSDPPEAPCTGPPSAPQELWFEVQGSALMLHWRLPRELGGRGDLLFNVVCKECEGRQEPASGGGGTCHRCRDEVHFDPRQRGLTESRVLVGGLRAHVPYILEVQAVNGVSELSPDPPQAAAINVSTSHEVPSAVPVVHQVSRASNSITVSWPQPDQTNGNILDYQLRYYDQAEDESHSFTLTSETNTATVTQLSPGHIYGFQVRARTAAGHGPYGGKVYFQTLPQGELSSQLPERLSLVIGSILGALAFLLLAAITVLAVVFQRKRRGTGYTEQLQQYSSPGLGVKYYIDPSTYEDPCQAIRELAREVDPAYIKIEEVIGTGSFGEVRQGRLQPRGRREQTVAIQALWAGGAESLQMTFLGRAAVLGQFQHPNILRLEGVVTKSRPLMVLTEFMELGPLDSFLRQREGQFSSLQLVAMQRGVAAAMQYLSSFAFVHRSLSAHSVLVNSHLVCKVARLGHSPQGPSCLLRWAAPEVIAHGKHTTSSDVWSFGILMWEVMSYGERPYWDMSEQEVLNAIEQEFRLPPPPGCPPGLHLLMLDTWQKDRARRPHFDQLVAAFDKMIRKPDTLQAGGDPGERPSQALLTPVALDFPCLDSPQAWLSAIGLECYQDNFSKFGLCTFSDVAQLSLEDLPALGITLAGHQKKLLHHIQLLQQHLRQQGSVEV

Assay [3] has as its target T2, HPK1 (Homo sapiens, UniProt Q92918).
T2 construct: gene MAP4K1

Assay [4] deals with T3, JNK1 (Homo sapiens, UniProt P45983).
T3 construct: gene MAPK8
T3 sequence (P45983 whole entry): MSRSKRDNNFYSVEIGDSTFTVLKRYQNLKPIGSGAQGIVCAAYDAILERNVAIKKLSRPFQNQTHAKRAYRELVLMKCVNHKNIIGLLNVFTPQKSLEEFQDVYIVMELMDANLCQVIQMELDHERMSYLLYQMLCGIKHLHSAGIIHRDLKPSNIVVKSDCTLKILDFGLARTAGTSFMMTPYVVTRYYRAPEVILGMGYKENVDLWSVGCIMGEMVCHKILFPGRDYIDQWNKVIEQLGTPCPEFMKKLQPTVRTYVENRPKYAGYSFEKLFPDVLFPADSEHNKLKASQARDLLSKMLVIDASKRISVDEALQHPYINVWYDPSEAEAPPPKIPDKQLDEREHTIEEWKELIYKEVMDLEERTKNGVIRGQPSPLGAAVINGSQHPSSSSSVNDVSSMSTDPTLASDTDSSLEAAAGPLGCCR

Assay [5] concerns the target T4, MST1 (Homo sapiens, UniProt Q13043).
T4 construct: gene STK4
T4 sequence (Q13043 1-487): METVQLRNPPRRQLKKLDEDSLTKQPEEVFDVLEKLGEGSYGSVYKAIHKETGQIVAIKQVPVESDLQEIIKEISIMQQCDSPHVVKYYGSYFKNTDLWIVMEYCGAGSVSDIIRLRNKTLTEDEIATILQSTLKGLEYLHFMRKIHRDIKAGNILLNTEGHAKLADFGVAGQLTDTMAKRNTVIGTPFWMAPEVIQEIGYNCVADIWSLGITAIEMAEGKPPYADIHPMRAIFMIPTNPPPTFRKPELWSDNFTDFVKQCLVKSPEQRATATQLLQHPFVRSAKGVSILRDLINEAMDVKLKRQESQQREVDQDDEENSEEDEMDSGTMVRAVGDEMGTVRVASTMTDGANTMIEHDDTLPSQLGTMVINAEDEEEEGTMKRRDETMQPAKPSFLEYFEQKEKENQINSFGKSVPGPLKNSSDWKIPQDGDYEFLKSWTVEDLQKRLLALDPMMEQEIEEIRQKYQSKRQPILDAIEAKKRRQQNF

Assay [6] deals with T5, TBK1 (Homo sapiens, UniProt Q9UHD2).
T5 sequence (Q9UHD2 1-729): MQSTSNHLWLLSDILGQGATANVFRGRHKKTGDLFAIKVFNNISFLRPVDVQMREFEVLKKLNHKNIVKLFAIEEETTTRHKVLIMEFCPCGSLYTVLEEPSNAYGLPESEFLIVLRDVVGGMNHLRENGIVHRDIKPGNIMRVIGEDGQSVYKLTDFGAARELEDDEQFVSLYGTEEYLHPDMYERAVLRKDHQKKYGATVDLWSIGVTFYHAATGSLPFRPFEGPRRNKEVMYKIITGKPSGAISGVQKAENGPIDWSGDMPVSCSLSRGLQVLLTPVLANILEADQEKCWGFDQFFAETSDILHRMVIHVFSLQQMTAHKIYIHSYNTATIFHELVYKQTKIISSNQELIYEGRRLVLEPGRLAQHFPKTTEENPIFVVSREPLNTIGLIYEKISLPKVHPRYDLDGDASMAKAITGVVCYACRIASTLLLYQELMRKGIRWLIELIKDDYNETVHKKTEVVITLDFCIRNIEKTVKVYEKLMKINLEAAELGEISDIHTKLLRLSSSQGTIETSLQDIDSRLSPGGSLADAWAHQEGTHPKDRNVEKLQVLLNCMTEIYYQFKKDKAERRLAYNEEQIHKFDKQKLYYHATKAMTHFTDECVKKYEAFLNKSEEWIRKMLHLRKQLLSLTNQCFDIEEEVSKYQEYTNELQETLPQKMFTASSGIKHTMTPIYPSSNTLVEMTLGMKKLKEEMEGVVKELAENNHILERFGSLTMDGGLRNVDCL

The target in assay [7] is T6, TRKA (Homo sapiens, UniProt P04629).
T6 construct: gene NTRK1
T6 sequence (P04629 whole entry): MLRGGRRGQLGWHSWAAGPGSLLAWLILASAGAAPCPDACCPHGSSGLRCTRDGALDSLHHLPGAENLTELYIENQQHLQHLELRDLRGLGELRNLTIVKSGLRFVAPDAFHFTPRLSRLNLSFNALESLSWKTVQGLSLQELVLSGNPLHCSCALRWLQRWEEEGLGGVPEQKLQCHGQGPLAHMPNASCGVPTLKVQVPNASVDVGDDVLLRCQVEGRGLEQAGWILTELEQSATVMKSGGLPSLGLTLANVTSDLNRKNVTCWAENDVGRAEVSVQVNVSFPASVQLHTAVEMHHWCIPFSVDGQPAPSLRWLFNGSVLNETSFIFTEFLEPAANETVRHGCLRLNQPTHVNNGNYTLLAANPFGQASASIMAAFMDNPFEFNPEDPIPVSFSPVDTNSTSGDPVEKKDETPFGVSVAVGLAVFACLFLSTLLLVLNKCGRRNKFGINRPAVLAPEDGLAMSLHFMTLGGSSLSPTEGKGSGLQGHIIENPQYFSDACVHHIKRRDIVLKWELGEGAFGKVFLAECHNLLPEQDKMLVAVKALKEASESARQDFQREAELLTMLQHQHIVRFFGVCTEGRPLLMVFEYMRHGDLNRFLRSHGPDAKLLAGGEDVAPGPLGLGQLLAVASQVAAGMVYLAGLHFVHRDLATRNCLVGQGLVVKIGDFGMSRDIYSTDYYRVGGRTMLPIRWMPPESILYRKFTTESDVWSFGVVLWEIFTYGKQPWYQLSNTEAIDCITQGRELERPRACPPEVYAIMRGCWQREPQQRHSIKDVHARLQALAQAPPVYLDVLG

[8] abbreviates: read-out: Niraparib (MK-4827) / %Ctrl @ 10000nM.
Setting [9] is: read-out: Talazoparib (BMN 673) / %Ctrl @ 10000nM.
Setting [10] is: read-out: Rucaparib / %Ctrl @ 10000nM, binding competition, % of control.
Where [11] appears, read: read-out: Olaparib / %Ctrl @ 10000nM.

BMPR1A, sequence (P36894 whole entry): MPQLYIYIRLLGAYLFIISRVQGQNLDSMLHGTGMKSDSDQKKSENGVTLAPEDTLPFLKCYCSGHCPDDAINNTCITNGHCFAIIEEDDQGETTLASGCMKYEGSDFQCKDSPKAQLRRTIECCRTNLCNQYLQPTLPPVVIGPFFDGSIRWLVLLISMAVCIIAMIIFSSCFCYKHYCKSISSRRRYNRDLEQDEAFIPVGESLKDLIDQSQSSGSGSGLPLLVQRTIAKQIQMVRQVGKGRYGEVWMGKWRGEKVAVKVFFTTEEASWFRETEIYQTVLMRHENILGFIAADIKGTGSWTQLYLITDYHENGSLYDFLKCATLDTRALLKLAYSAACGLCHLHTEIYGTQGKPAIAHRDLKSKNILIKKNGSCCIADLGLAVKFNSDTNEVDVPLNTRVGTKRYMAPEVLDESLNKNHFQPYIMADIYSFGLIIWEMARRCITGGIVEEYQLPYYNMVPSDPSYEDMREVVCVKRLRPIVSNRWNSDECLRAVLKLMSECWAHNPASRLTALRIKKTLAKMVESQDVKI
T2 sequence (Q92918 whole entry): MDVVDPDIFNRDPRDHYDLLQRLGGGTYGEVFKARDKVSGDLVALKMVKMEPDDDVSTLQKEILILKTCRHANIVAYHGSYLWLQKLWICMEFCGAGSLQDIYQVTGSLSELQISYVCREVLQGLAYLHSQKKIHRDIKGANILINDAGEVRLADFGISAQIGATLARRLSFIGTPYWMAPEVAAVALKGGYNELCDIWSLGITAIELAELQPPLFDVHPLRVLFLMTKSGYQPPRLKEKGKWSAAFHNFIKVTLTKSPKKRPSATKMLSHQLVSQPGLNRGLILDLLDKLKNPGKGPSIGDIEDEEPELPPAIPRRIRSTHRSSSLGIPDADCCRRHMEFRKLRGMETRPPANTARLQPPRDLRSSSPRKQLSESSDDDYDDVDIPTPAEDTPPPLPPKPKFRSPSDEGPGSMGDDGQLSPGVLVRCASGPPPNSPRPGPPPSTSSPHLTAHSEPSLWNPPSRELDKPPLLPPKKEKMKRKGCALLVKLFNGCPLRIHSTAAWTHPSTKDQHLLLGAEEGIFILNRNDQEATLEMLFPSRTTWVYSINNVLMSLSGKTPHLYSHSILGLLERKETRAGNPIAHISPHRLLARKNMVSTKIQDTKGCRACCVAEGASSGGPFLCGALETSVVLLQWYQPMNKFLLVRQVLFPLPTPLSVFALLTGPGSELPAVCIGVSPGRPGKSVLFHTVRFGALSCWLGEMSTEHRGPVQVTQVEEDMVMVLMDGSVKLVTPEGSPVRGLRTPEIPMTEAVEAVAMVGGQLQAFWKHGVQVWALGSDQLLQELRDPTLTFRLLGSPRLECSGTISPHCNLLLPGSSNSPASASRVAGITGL

As for `NC(=O)c1cccc2cn(-c3ccc([C@@H]4CCCNC4)cc3)nc12` [Niraparib], the percent of control binding at 10 µM in assay [1] (setting [8]) was 94%; in assay [2] (setting [8]), 34%; in assay [3] (setting [8]) it was 100%; in assay [4] (setting [8]), 85%; in assay [5] (setting [8]), 87%; in assay [6] (setting [8]), 75%. Besides, in assay [7] (setting [8]), the percent of control binding at 10 µM is 99%.

As for `Cn1ncnc1[C@H]1c2n[nH]c(=O)c3cc(F)cc(c23)N[C@@H]1c1ccc(F)cc1` [Talazoparib], the percent of control binding at 10 µM amounted to 100% in assay [1] (setting [9]); 84% in assay [2] (setting [9]); 85% in assay [3] (setting [9]); 79% in assay [4] (setting [9]); 100% in assay [5] (setting [9]); 44% in assay [6] (setting [9]). Further, in assay [7] (setting [9]), the percent of control binding at 10 µM is 100%.

In the case of `CNCc1ccc(-c2[nH]c3cc(F)cc4c3c2CCNC4=O)cc1` [Rucaparib], the percent of control binding at 10 µM in assay [1] (setting [10]) is 91%; in assay [2] (setting [10]), 50%; in assay [3] (setting [10]), 96%; in assay [4] (setting [10]), 65%; in assay [5] (setting [10]), 85%; in assay [6] (setting [10]) it was 87%. For the same compound, the percent of control binding at 10 µM in assay [7] (setting [10]) turned out to be 74%.

Regarding `O=C(c1cc(Cc2n[nH]c(=O)c3ccccc23)ccc1F)N1CCN(C(=O)C2CC2)CC1` [Olaparib], the percent of control binding at 10 µM in assay [1] (setting [11]) was found to be 100%; in assay [2] (setting [11]), 81%; in assay [3] (setting [11]), 94%; in assay [4] (setting [11]), 98%; in assay [5] (setting [11]), 97%; in assay [6] (setting [11]), 91%. In addition, the percent of control binding at 10 µM in assay [7] (setting [11]) turned out to be 91%.
